Measurements: patent publication US20250231185A1, “Coronavirus T Cell Epitopes, Megapools and Uses Thereof” (La Jolla Institute for Immunology, priority 2021, published 2025)

Test system: CD4+ T cells
Test: Meta-analysis of published SARS-CoV-2 CD4 T cell epitope data curated in the IEDB (25 studies)
Format: cell-based, human
[1] = CD4R (D) Megapool, non-spike antigens, dominant = recognized in 3 or more donors/studies
[2] = CD4RE megapool peptides (non-spike SARS-CoV-2 CD4 epitopes), dominant = recognized by 3 or more donors/different studies

Substance	Dominant [1]	Dominant [2]
2308 (ASWFTALTQHGKEDL) [compound 2308]	Yes (more dominant epitopes are defined by being recognized by 3 or more donors/different studies)	–
2639 (DDQIGYYRRATRRIR) [compound 2639]	–	Yes (more dominant epitopes are defined by being recognized by 3 or more donors/different studies)
2645 (KDGIIWVATEGALNT) [compound 2645]	–	Yes (more dominant epitopes are defined by being recognized by 3 or more donors/different studies)
2674 (QEEVQELYSPIFLIV) [compound 2674]	–	Yes (more dominant epitopes are defined by being recognized by 3 or more donors/different studies)
2323 (KRTATKAYNVTQAFG) [compound 2323]	Yes (more dominant epitopes are defined by being recognized by 3 or more donors/different studies)	–
2643 (RWYFYYLGTGPEAGL) [compound 2643]	–	Yes (more dominant epitopes are defined by being recognized by 3 or more donors/different studies)
2652 (KRTATKAYNVTQAFG) [compound 2652]	–	Yes (more dominant epitopes are defined by being recognized by 3 or more donors/different studies)
2650 (AAEASKKPRQKRTAT) [compound 2650]	–	Yes (more dominant epitopes are defined by being recognized by 3 or more donors/different studies)
2646 (AIVLQLPQGTTLPKG) [compound 2646]	–	Yes (more dominant epitopes are defined by being recognized by 3 or more donors/different studies)
2623 (SELVIGAVILRGHLR) [compound 2623]	–	Yes (more dominant epitopes are defined by being recognized by 3 or more donors/different studies)
2318 (AGNGGDAALALLLLD) [compound 2318]	Yes (more dominant epitopes are defined by being recognized by 3 or more donors/different studies)	–
2328 (ASAFFGMSRIGMEVT) [compound 2328]	Yes (more dominant epitopes are defined by being recognized by 3 or more donors/different studies)	–
2630 (KEITVATSRTLSYYK) [compound 2630]	–	Yes (more dominant epitopes are defined by being recognized by 3 or more donors/different studies)
2622 (TNILLNVPLHGTILT) [compound 2622]	–	Yes (more dominant epitopes are defined by being recognized by 3 or more donors/different studies)
2641 (YYRRATRRIRGGDGK) [compound 2641]	–	Yes (more dominant epitopes are defined by being recognized by 3 or more donors/different studies)
2306 (LGASQRVAGDSGFAA) [compound 2306]	Yes (more dominant epitopes are defined by being recognized by 3 or more donors/different studies)	–
2655 (YKHWPQIAQFAPSAS) [compound 2655]	–	Yes (more dominant epitopes are defined by being recognized by 3 or more donors/different studies)
2657 (ASAFFGMSRIGMEVT) [compound 2657]	–	Yes (more dominant epitopes are defined by being recognized by 3 or more donors/different studies)
2620 (CLVGLMWLSYFIASF) [compound 2620]	–	Yes (more dominant epitopes are defined by being recognized by 3 or more donors/different studies)
2618 (VLAAVYRINWITGGI) [compound 2618]	–	Yes (more dominant epitopes are defined by being recognized by 3 or more donors/different studies)
2311 (IGYYRRATRRIRGGD) [compound 2311]	Yes (more dominant epitopes are defined by being recognized by 3 or more donors/different studies)	–
2322 (KKPRQKRTATKAYNV) [compound 2322]	Yes (more dominant epitopes are defined by being recognized by 3 or more donors/different studies)	–
2616 (FYVYSRVKNLNSSRV) [compound 2616]	–	Yes (more dominant epitopes are defined by being recognized by 3 or more donors/different studies)
2298 (IAGHHLGRCDIKDLP) [compound 2298]	Yes (more dominant epitopes are defined by being recognized by 3 or more donors/different studies)	–
2310 (DDQIGYYRRATRRIR) [compound 2310]	Yes (more dominant epitopes are defined by being recognized by 3 or more donors/different studies)	–
